Experimental data taken from ChEMBL document CHEMBL5131471, “Design, synthesis and mechanism studies of novel dual PARP1/BRD4 inhibitors against pancreatic cancer” (Eur J Med Chem, 2022).
Calls of active or inactive are those of the source. No cut-off for these calls is given here.

Columns and labels:
CFPAC-1 [1] = assay: Antiproliferative activity against human CFPAC-1 cells assessed as inhibition of cell growth measured after 3 days by MTT assay; format: functional, cell-based; settings: CFPAC-1, 72 h
MDA-MB-468 = assay: Antiproliferative activity against BRCA-proficient human MDA-MB-468 cells assessed as inhibition of cell growth measured after 7 days by MTT assay; format: functional, cell-based; settings: MDA-MB-468, 168 h
SW1990 [2] = assay: Effect on MDC1 gene expression in human SW1990 cells at 6 uM by Q-PCR analysis; format: functional, cell-based
SW1990 [3] = assay: Effect on BRCA2 gene expression in human SW1990 cells at 6 uM by Q-PCR analysis; format: functional, cell-based
CFPAC-1 [4] = assay: Antiproliferative activity against human CFPAC-1 cells assessed as inhibition of cell growth measured after 7 days by MTT assay; format: functional, cell-based; settings: CFPAC-1, 168 h
CAPAN-1 [5] = assay: Antiproliferative activity against human CAPAN-1 cells assessed as inhibition of cell growth measured after 5 days by MTT assay; format: functional, cell-based; settings: CAPAN-1, 120 h
SW1990 [6] = assay: Antiproliferative activity against human SW1990 cells assessed as inhibition of cell growth measured after 5 days by MTT assay; format: functional, cell-based; settings: SW1990, 120 h
CFPAC-1 [7] = assay: Antiproliferative activity against human CFPAC-1 cells assessed as inhibition of cell growth measured after 5 days by MTT assay; format: functional, cell-based; settings: CFPAC-1, 120 h
SW1990 [8] = assay: Antiproliferative activity against human SW1990 cells assessed as inhibition of cell growth measured after 7 days by MTT assay; format: functional, cell-based; settings: SW1990, 168 h
THP-1 = assay: Antiproliferative activity against human THP-1 cells expressing BRD4 assessed as inhibition of cell growth measured after 3 days by MTT assay; format: functional, cell-based; settings: THP-1, 72 h
SW1990 [9] = assay: Antiproliferative activity against human SW1990 cells assessed as inhibition of cell growth after 3 days by MTT assay; format: functional, cell-based; settings: SW1990, 72 h
SW1990 [10] = assay: Effect on FOXO1 gene expression in human SW1990 cells at 6 uM by Q-PCR analysis; format: functional, cell-based
SW1990 [11] = assay: Upregulation of CDK1 expression in human SW1990 cells at 6 uM measured after 4 days by Western blot analysis; format: functional, cell-based; settings: time 4.0 day
SW1990 [12] = assay: Upregulation of CCNB1 expression in human SW1990 cells at 6 uM measured after 4 days by Western blot analysis; format: functional, cell-based; settings: time 4.0 day
SW1990 [13] = assay: Upregulation of BRCA2 expression in human SW1990 cells at 6 uM measured after 4 days by Western blot analysis; format: functional, cell-based; settings: time 4.0 day
[14] = Toxicity in nude mouse xenografted with human SW1990 cells assessed as liver damage at 45 mg/kg, ip administered for 28 days by H and E staining based fluorescence microscopic analysis; format: organism-based; settings: in vivo, 672 h, time 28 day
SW1990 [15] = assay: Effect on c-Myc gene expression in human SW1990 cells at 6 uM by Q-PCR analysis; format: functional, cell-based
CAPAN-1 [16] = assay: Antiproliferative activity against human CAPAN-1 cells assessed as inhibition of cell growth measured after 3 days by MTT assay; format: functional, cell-based; settings: CAPAN-1, 72 h
CAPAN-1 [17] = assay: Antiproliferative activity against human CAPAN-1 cells assessed as inhibition of cell growth measured after 7 days by MTT assay; format: functional, cell-based; settings: CAPAN-1, 168 h
HCT-116 = assay: Antiproliferative activity against BRCA2-mutated human HCT-116 cells assessed as inhibition of cell growth measured after 7 days by MTT assay; format: functional, cell-based; settings: HCT-116, 168 h
SW1990 [18] = assay: Inhibition of CDC25B protein expression in human SW1990 cells at 1 to 2 uM measured after 4 days by Western blot analysis; format: functional, cell-based; settings: dose 1-2 µM, time 4.0 day
Mus musculus = assay: Inhibition of homologous recombinant repair in nude mouse xenografted with human SW1990 cells assessed as reversal of olaparib-induced Rad51 expression at 30 mg/kg, ip after 4 days by Western blot analysis; format: functional, organism-based; settings: time 4.0 day
SW1990 [19] = assay: Inhibition of homologous recombinant repair in human SW1990 cells assessed as reversal of Olaparib-induced TOPBP1 expression at 1 to 2 uM after 4 days by Western blot analysis; format: functional, cell-based; settings: dose 1-2 µM, time 4.0 day
MDA-MB-231 = assay: Antiproliferative activity against BRCA-proficient human MDA-MB-231 cells assessed as inhibition of cell growth measured after 7 days by MTT assay; format: functional, cell-based; settings: MDA-MB-231, 168 h
CFPAC-1 [20] = assay: Antiproliferative activity against human CFPAC-1 cells assessed as inhibition of cell growth measured after 4 days by MTT assay; format: functional, cell-based; settings: CFPAC-1, 96 h
SW1990 [21] = assay: Inhibition of E2F2 protein expression in human SW1990 cells at 1 to 2 uM measured after 4 days by Western blot analysis; format: functional, cell-based; settings: dose 1-2 µM, time 4.0 day
SW1990 [22] = assay: Effect on MDC1 gene expression in human SW1990 cells at 1 to 2 uM by Q-PCR analysis; format: functional, cell-based; settings: dose 1-2 µM
[23] = Toxicity in nude mouse xenografted with human SW1990 cells assessed as spleen damage at 30 mg/kg, ip administered for 28 days by H and E staining based fluorescence microscopic analysis; format: organism-based; settings: in vivo, 672 h, time 28 day
SW1990 [24] = assay: Inhibition of colony formation in human SW1990 cells at 1 uM after 14 days by crystal violet staining based microscopic analysis; format: functional, cell-based; settings: time 14.0 day
SW1990 [25] = assay: Induction of apoptosis in human SW1990 cells assessed as late apoptotic cells at 4 uM measured after 4 days by Annexin V-FITC and propidium iodide staining based flow cytometry (reference value: 7.23%); format: functional; settings: time 4 day
SW1990 [26] = assay: Induction of apoptosis in human SW1990 cells assessed as early apoptotic cells at 4 uM measured after 4 days by Annexin V-FITC and propidium iodide staining based flow cytometry (reference value: 1.62%); format: functional; settings: time 4 day
SW1990 [27] = assay: Effect on c-Myc gene expression in human SW1990 cells at 1 uM in presence of Olaparib by Q-PCR analysis; format: functional, cell-based
SW1990 [28] = assay: Effect on BRCA1 gene expression in human SW1990 cells at 1 uM in presence of Olaparib by Q-PCR analysis; format: functional, cell-based
[29] = Toxicity in nude mouse xenografted with human SW1990 cells assessed as kidney damage at 15 mg/kg, ip administered for 28 days by H and E staining based fluorescence microscopic analysis; format: organism-based; settings: in vivo, 672 h, time 28 day
SW1990 [30] = assay: Downregulation of Ki67 expression in human SW1990 cells at 15 mg/kg, ip measured after 28 days by immuno histochemical staining based fluorescence microscopic analysis; format: functional, organism-based; settings: time 28.0 day
SW1990 [31] = assay: Effect on FOXO1 gene expression in human SW1990 cells at 4 uM by Q-PCR analysis; format: functional, cell-based
SW1990 [32] = assay: Effect on CDK1 gene expression in human SW1990 cells at 1 uM in presence of Olaparib by Q-PCR analysis; format: functional, cell-based
[33] = Toxicity in nude mouse xenografted with human SW1990 cells assessed as spleen damage at 15 mg/kg, ip administered for 28 days by H and E staining based fluorescence microscopic analysis; format: organism-based; settings: in vivo, 672 h, time 28 day
SW1990 [34] = assay: Induction of cell cycle arrest in human SW1990 cells assessed as accumulation of cells at G0/G1 phase at 1 uM incubated for 4 days in presence of 3 uM Olaparib by propidium iodide staining based flow cytometry (reference value: 64.79%); format: functional; settings: time 4 day

Structure (SMILES)	IC50 (CFPAC-1 [1])	IC50 (MDA-MB-468)	IC50 (CFPAC-1 [4])	IC50 (SW1990 [6])	IC50 (CFPAC-1 [7])	IC50 (SW1990 [8])	IC50 (THP-1)	IC50 (SW1990 [9])	IC50 (CAPAN-1 [16])	IC50 (CAPAN-1 [17])	IC50 (HCT-116)	IC50 (CAPAN-1 [5]; read-out: IC50)	IC50 (CFPAC-1 [20])	other results
O=C(c1cc(Cc2n[nH]c(=O)c3ccccc23)ccc1F)N1CCN(C(=O)C2CC2)CC1 [OLAPARIB]	28700 nM	1830 nM	7440 nM	4930 nM	9870 nM	3630 nM	32300 nM	19400 nM	25200 nM	2610 nM	7320 nM	–	–	Activity (SW1990 [2]): Active; Activity (SW1990 [3]): Active; IC50 (CAPAN-1 [5]): 5340 nM; Activity (SW1990 [10]): Active; Activity (SW1990 [11]): Active; Activity (SW1990 [12]): Active; Activity (SW1990 [13]): Active; Activity [14]: Non-Toxic; Activity (SW1990 [15]): Active
Cc1noc(C)c1-c1ccc2c(c1)C(c1ccccc1)N(Cc1nc3c(C(N)=O)cccc3[nH]1)C(=O)N2C (stereo not drawn)	2430 nM	90 nM	210 nM	980 nM	980 nM	560 nM	430 nM	11700 nM	7210 nM	170 nM	1440 nM	410 nM	1310 nM	inhibition (SW1990 [18]): Active; inhibition (Mus musculus): Active; inhibition (SW1990 [19]): Active; IC50 (MDA-MB-231): 140 nM; inhibition (SW1990 [21]): Active; Activity (SW1990 [22]): Active; Activity [23]: Non-Toxic; inhibition (SW1990 [24]): Active
Cc1sc2c(c1C)C(c1ccc(Cl)cc1)=N[C@@H](CC(=O)OC(C)(C)C)c1nnc(C)n1-2	13900 nM	540 nM	350 nM	1110 nM	–	630 nM	330 nM	31600 nM	24100 nM	450 nM	2030 nM	580 nM	1860 nM	Activity (SW1990 [25]): 24.9%; Activity (SW1990 [26]): 1.73%; Activity (SW1990 [27]): Active; Activity (SW1990 [28]): Active; Activity [29]: Non-Toxic; Activity (SW1990 [30]): Active; Activity (SW1990 [31]): Active; Activity (SW1990 [32]): Active; Activity [33]: Non-Toxic; Activity (SW1990 [34]): 71.53%
